Test results taken from PMC5011342, “A high throughput drug screening assay to identify compounds that promote oligodendrocyte differentiation using acutely dissociated and purified oligodendrocyte precursor cells” (BMC Research Notes, 2016).
Structures can show the parent of a compound that is named as a salt. Where two headings read alike, the source gives them in different places.

Legend:
[1] = tested on: acutely dissociated and purified rat OPCs; experiment: Acute OL differentiation assay (MBP expression/cell, immunofluorescent image quantification); type: cell-based; conditions: Rattus norvegicus, sheet "All OLga data"
How it was run: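 This acute differentiation assay used purified rat OPCs from postnatal day 6–7 pups, seeded into PDL/laminin-coated 96-well plates in differentiation medium lacking PDGF and FGF. Compounds were applied in quadruplicate after a 1–2 h preincubation at 37 °C, 10 % CO2, with 0.1 % DMSO negative and 40 ng/ml T3 positive controls in eight wells. After fixation on DIV4, anti-MBP immunofluorescence images yielded MBP expression/cell.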

expanded OPCs = experiment: cells; conditions: for viability at 0.1 µM / viability at 1 µM / viability at 10 µM: Rattus norvegicus, 72 h; for 0.1 µM (% DMSO) / 1 µM (% DMSO) / 10 µM (% DMSO): alamarBlue viability of expanded OPCs, relative to DMSO control; for 0.1 µM (% DMSO): compound at 0.1 µM; for 1 µM (% DMSO): compound at 1 µM; for 10 µM (% DMSO): compound at 10 µM
How it was run: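 Toxicity screen: compounds added at 0.1, 1 and 10 µM to PDGF-AA-expanded OPCs in 96-well plates, 3-day incubation at 37 °C, 10% CO2, then alamarBlue 1:10 for 4 h with fluorescence readout. Results set screening doses of 10/2, 2/0.4 or 0.4/0.08 µM.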

[2] = test compound at 2 uM, NCC library screen, relative to quetiapine, read-out: 2 uM (% Quet)
[3] = test compound at 10 uM, NCC library screen, relative to quetiapine, read-out: 10 uM (% Quet)
[4] = read-out: 0.1 µM (% DMSO), alamarBlue viability, NCC library compound at 0.1 µM, sheet "All Tox data"
[5] = read-out: 1 µM (% DMSO), alamarBlue viability, NCC library compound at 1 µM, sheet "All Tox data"
[6] = read-out: 10 µM (% DMSO), alamarBlue viability, NCC library compound at 10 µM, sheet "All Tox data"
[7] = test compound at 0.4 uM, NCC library screen, relative to quetiapine, read-out: 0.4 uM (% Quet)
[8] = test compound at 0.4 uM, MBP expression relative to quetiapine, NCC library screen, read-out: 0.4 uM (% Quet)
[9] = test compound at 2 uM, MBP expression relative to quetiapine, NCC library screen, read-out: 2 uM (% Quet)
[10] = 0.4 uM test compound, relative to quetiapine, read-out: OL differentiation, 0.4 uM (% Quet)
[11] = 2 uM test compound, relative to quetiapine, read-out: OL differentiation, 2 uM (% Quet)
[12] = read-out: 0.1 µM (% DMSO), alamarBlue viability of expanded OPCs, compound at 0.1 µM, sheet All Tox data
[13] = read-out: 1 µM (% DMSO), alamarBlue viability of expanded OPCs, compound at 1 µM, sheet All Tox data
[14] = read-out: 10 µM (% DMSO), alamarBlue viability of expanded OPCs, compound at 10 µM, sheet All Tox data
[15] = 10 uM test compound, relative to quetiapine, read-out: OL differentiation, 10 uM (% Quet)

Compound | viability at 0.1 µM (expanded OPCs; [4]) [%] | viability at 1 µM (expanded OPCs; [5]) [%] | viability at 10 µM (expanded OPCs; [6]) [%] | 0.1 µM (% DMSO) (expanded OPCs) | 1 µM (% DMSO) (expanded OPCs) | 10 µM (% DMSO) (expanded OPCs) | activation at 2 µM [1, 11] [%] | viability at 0.1 µM (expanded OPCs; [12]) [%] | viability at 1 µM (expanded OPCs; [13]) [%] | viability at 10 µM (expanded OPCs; [14]) [%] | activation at 10 µM [1, 15] [%] | other results
CCOc1cc(CC(=O)N[C@@H](CC(C)C)c2ccccc2N2CCCCC2)ccc1C(=O)O [Repaglinide] | 90.5 | 96.8 | 125 |  |  |  |  |  |  |  |  | activation at 2 µM [1, 2]: 13.8%; activation at 10 µM [1, 3]: -23.7%
Oc1ccc(/C=C/c2cc(O)cc(O)c2)cc1 [Resveratrol] | 83.2 | 87.6 | 76.7 |  |  |  |  |  |  |  |  | activation at 2 µM [1, 2]: -34.1%; activation at 10 µM [1, 3]: -128%
CC1=C(/C=C/C(C)=C/C=C/C(C)=C/C(=O)O)C(C)(C)CCC1 [Retinoic Acid] |  |  |  | 144.5 | 188.5 | 58.3 |  |  |  |  |  | activation at 0.4 µM [1, 7]: -23%; activation at 2 µM [1, 2]: 128%
NC(=O)c1ncn([C@@H]2O[C@H](CO)[C@@H](O)[C@H]2O)n1 [Ribavirin] |  |  |  | 96.2 | 92.8 | 76.9 |  |  |  |  |  | activation at 0.4 µM [1, 8]: 8.6%; activation at 2 µM [1, 9]: 6.7%
CO[C@H]1/C=C/O[C@@]2(C)Oc3c(C)c(O)c4c(c3C2=O)C2=NC3(CCN(CC(C)C)CC3)NC2=C(NC(=O)/C(C)=C\C=C\[C@H](C)[C@H](O)[C@@H](C)[C@@H](O)[C@@H](C)[C@H](OC(C)=O)[C@@H]1C)C4=O [Rifabutin] |  |  |  | 95.3 | 77.1 | 32.3 | -31.8 | 86.7 | 79.7 | 37 |  | activation at 0.4 µM [1, 10]: 16.3%; activation at 0.4 µM [1, 8]: -0.04%; activation at 2 µM [1, 9]: -15.6%
CO[C@H]1/C=C/O[C@@]2(C)Oc3c(C)c(O)c4c(O)c(c(/C=N/N5CCN(C)CC5)c(O)c4c3C2=O)NC(=O)/C(C)=C\C=C\[C@H](C)[C@H](O)[C@@H](C)[C@@H](O)[C@@H](C)[C@H](OC(C)=O)[C@@H]1C [Rifampicin] |  |  |  | 91.7 | 85.6 | 62.3 |  |  |  |  |  | activation at 2 µM [1, 2]: -69.7%; activation at 10 µM [1, 3]: -188%
CO[C@H]1/C=C/O[C@@]2(C)Oc3c(C)c(O)c4c(O)c(c(/C=N/N5CCN(C6CCCC6)CC5)c(O)c4c3C2=O)NC(=O)/C(C)=C\C=C\[C@H](C)[C@H](O)[C@@H](C)[C@@H](O)[C@@H](C)[C@H](OC(C)=O)[C@@H]1C [Rifapentine] | 94.8 | 73 | 25.3 | 89.9 | 78.4 | 40.0 | -70.1 |  |  |  |  | activation at 0.4 µM [1, 10]: -16.7%; activation at 0.4 µM [1, 8]: -18.6%; activation at 2 µM [1, 9]: -118%
CO[C@H]1/C=C/O[C@@]2(C)Oc3c(C)c(O)c4c(O)c(c5c(nc6cc(C)ccn65)c4c3C2=O)NC(=O)/C(C)=C\C=C\[C@H](C)[C@H](O)[C@@H](C)[C@@H](O)[C@@H](C)[C@H](OC(C)=O)[C@@H]1C [Rifaximin] | 101 | 69.4 | 21 |  |  |  | -77.9 |  |  |  |  | activation at 0.4 µM [1, 10]: -15.2%
CC(N)C12CC3CC(CC(C3)C1)C2 (stereo not shown) [Rimantadine] |  |  |  | 89.9 | 83.2 | 32.9 |  |  |  |  |  | activation at 0.4 µM [1, 8]: -17.2%; activation at 2 µM [1, 9]: -11.2%
C[C@@H]1CN(CCCn2c3ccccc3c3ccccc32)C[C@H](C)N1 [Rimcazole] | 61.7 | 33.6 | 9.5 |  |  |  |  |  |  |  |  | activation at 0.08 µM ([1]; test compound at 0.08 uM, NCC library screen, relative to quetiapine, read-out: 0.08 uM (% Quet)): -5.2%; activation at 0.4 µM [1, 7]: 23.1%
Cc1nc2n(c(=O)c1CCN1CCC(c3noc4cc(F)ccc34)CC1)CCCC2 [Risperidone] |  |  |  |  |  |  | 2.4 | 92.3 | 99.8 | 90.2 | 31.6 | 
CC(C)c1nc(CN(C)C(=O)N[C@H](C(=O)N[C@@H](Cc2ccccc2)C[C@H](O)[C@H](Cc2ccccc2)NC(=O)OCc2cncs2)C(C)C)cs1 [Ritonavir] |  |  |  |  |  |  | -21.7 | 96.5 | 97.4 | 69.8 | -35.8 | 
CN(C)CCc1c[nH]c2ccc(Cn3cncn3)cc12 [Rizatriptan] |  |  |  |  |  |  | -2.6 | 110 | 94.8 | 86.3 | -0.44 | 
CS(=O)(=O)c1ccc(C2=C(c3ccccc3)C(=O)OC2)cc1 [Rofecoxib] |  |  |  |  |  |  | -10.8 | 91.5 | 97.2 | 115 | -9 | 
COc1ccc(C2CNC(=O)C2)cc1OC1CCCC1 (stereo not shown) [Rolipram] |  |  |  |  |  |  | 11.2 | 97.1 | 92.8 | 86.8 | -14.2 | 
CN(C)[C@@H]1C(O)=C(C(=O)NCN2CCCC2)C(=O)[C@@]2(O)C(O)=C3C(=O)c4c(O)cccc4[C@@](C)(O)[C@H]3C[C@@H]12 [Rolitetracycline] | 94.4 | 92.4 | 69.8 |  |  |  |  |  |  |  |  | activation at 2 µM [1, 2]: 1.5%; activation at 10 µM [1, 3]: -11.1%
CN(CCOc1ccc(CC2SC(=O)NC2=O)cc1)c1ccccn1 (stereo not shown) [Rosiglitazone maleate] |  |  |  |  |  |  | 7.9 | 95.3 | 103 | 158 |  | 
CC(=O)OCC(=O)NCCCOc1cccc(CN2CCCCC2)c1 [Roxatidine acetate] | 101 | 96 | 85.7 |  |  |  | -1.7 |  |  |  | 8.2 | 
CN1CCN(c2c(F)cc3c(=O)c(C(=O)O)cn4c3c2SCC4)CC1 [Rufloxacin] |  |  |  |  |  |  | -26.4 | 98.3 | 89.1 | 103 | 7 | 
C[C@@H]1O[C@@H](OC[C@H]2O[C@@H](Oc3c(-c4ccc(O)c(O)c4)oc4cc(O)cc(O)c4c3=O)[C@H](O)[C@@H](O)[C@@H]2O)[C@H](O)[C@H](O)[C@H]1O [Rutin] |  |  |  |  |  |  | 22.9 | 106 | 108 | 106 | 21.3 | 
